Measured values published in ChEMBL document CHEMBL1139636, “QSAR analysis of thiazole benzenesulfonamide substituted 3-pyridylethanolamines as beta3-adrenergic receptor agonist” (Bioorg Med Chem Lett, 2005).

The molecules below were run against Beta-3 adrenergic receptor (Homo sapiens, UniProt P13945) (assay: Effective concentration to stimulate cAMP production in chinese hamster ovary cells expressing cloned human beta-3-adrenergic receptor).
Beta-3 adrenergic receptor, sequence (P13945 whole entry): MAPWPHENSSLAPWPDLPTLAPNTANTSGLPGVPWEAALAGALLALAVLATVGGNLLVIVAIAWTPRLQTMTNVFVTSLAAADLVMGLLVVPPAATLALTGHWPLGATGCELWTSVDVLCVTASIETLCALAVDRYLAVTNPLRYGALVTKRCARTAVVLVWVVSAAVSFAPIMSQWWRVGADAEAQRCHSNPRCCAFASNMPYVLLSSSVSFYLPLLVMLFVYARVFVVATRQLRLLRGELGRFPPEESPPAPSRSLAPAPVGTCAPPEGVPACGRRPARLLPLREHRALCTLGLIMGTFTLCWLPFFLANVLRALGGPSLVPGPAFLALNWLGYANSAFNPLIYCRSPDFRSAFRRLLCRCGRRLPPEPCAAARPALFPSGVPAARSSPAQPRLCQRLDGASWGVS
Format: functional, cell-based, Cricetulus griseus
`O=S(=O)(Nc1ccc(CCNC[C@H](O)c2ccccc2)cc1)c1ccc(Cc2nc(-c3ccc4ccccc4c3)cs2)cc1` was tested, and the EC50 was 2 nM.
In the case of `CCCCCCCCc1csc(Cc2ccc(S(=O)(=O)Nc3ccc(CCNC[C@H](O)c4ccccc4)cc3)cc2)n1`, the EC50 is reported as 10 nM.
Molecule `O=S(=O)(Nc1ccc(CCNC[C@H](O)c2ccccc2)cc1)c1ccc(Cc2nc(-c3c[nH]c4ccccc34)cs2)cc1` has an EC50 of 9.1 nM.
`O=S(=O)(Nc1ccc(CCNC[C@H](O)c2ccccc2)cc1)c1ccc(Cc2nc(-c3ccc(F)c(F)c3)cs2)cc1` was tested, and the EC50 was 7.1 nM.
Work on `O=S(=O)(Nc1ccc(CCNC[C@H](O)c2ccccc2)cc1)c1ccc(Cc2nc(CCc3ccccc3)cs2)cc1` yielded an EC50 of 33 nM.
Work on `O=S(=O)(Nc1ccc(CCNC[C@H](O)c2ccccc2)cc1)c1ccc(Cc2nc(-c3ccc(F)cc3)cs2)cc1` yielded an EC50 of 9.5 nM.
In the case of `CCCCCCc1ccc(-c2csc(Cc3ccc(S(=O)(=O)Nc4ccc(CCNC[C@H](O)c5ccccc5)cc4)cc3)n2)cc1`, the EC50 is reported as 1.2 nM.
With `O=S(=O)(Nc1ccc(CCNC[C@H](O)c2ccccc2)cc1)c1ccc(Cc2nc(-c3cccnc3)cs2)cc1` the EC50 was 40 nM.
In the case of `O=S(=O)(Nc1ccc(CCNC[C@H](O)c2ccccc2)cc1)c1ccc(Cc2nc(-c3ccc(O)cc3)cs2)cc1`, the EC50 is reported as 45 nM.
`CCCCCCCCc1csc(CCc2ccc(S(=O)(=O)Nc3ccc(CCNC[C@H](O)c4ccccc4)cc3)cc2)n1` was tested, and the EC50 was 9.8 nM.
`CC(C)(C)c1ccc(-c2csc(Cc3ccc(S(=O)(=O)Nc4ccc(CCNC[C@H](O)c5ccccc5)cc4)cc3)n2)cc1` was tested, and the EC50 was 2.4 nM.
With `O=S(=O)(Nc1ccc(CCNC[C@H](O)c2ccccc2)cc1)c1ccc(Cc2nc(CCC3CCCC3)cs2)cc1` the EC50 was 26 nM.
`O=S(=O)(Nc1ccc(CCNC[C@H](O)c2ccccc2)cc1)c1ccc(Cc2nc(-c3ccc4ncccc4c3)cs2)cc1` showed an EC50 of 2.7 nM.
For `O=S(=O)(Nc1ccc(CCNC[C@H](O)c2ccccc2)cc1)c1ccc(CCc2nc(Cc3ccc4ccccc4c3)cs2)cc1`, the EC50 was 12 nM.
`CC/C=C/CC/C=C/c1csc(Cc2ccc(S(=O)(=O)Nc3ccc(CCNC[C@H](O)c4ccccc4)cc3)cc2)n1` gave an EC50 of 51 nM.
Work on `O=S(=O)(Nc1ccc(CCNC[C@H](O)c2ccccc2)cc1)c1ccc(Cc2nc(Cc3ccc4ccccc4c3)cs2)cc1` yielded an EC50 of 33 nM.
`O=S(=O)(Nc1ccc(CCNC[C@H](O)c2ccccc2)cc1)c1ccc(Cc2nc(-c3cc4ccccc4o3)cs2)cc1` was tested, and the EC50 was 5 nM.
`O=S(=O)(Nc1ccc(CCNC[C@H](O)c2ccccc2)cc1)c1ccc(Cc2nc(Cc3ccc(F)cc3)cs2)cc1` showed an EC50 of 6.2 nM.
`O=S(=O)(Nc1ccc(CCNC[C@H](O)c2ccccc2)cc1)c1ccc(Cc2nc(-c3cc4ccccc4s3)cs2)cc1` gave an EC50 of 5.8 nM.
For `O=S(=O)(Nc1ccc(CCNC[C@H](O)c2ccccc2)cc1)c1ccc(Cc2nc(-c3cnc4ccccc4c3)cs2)cc1`, the EC50 was 7.3 nM.
Work on `CC(=O)NCCCCCc1csc(Cc2ccc(S(=O)(=O)Nc3ccc(CCNC[C@H](O)c4ccccc4)cc3)cc2)n1` yielded an EC50 of 50 nM.
`O=S(=O)(Nc1ccc(CCNC[C@H](O)c2ccccc2)cc1)c1ccc(Cc2nc(-c3ccccn3)cs2)cc1` gave an EC50 of 22 nM.
`CC(=O)Nc1ccc(-c2csc(Cc3ccc(S(=O)(=O)Nc4ccc(CCNC[C@H](O)c5ccccc5)cc4)cc3)n2)cc1` was tested, and the EC50 was 45 nM.
